Source: patent publication US9029376B2, “Small molecule inhibitors for the treatment or prevention of dengue virus infection” (Siga Technologies, Inc., priority 2008, dated 2015)
pEC50: −log10 of the molar value.

These compounds were tested on Dengue-2 (Strain New Guinea C) (assay: Dengue-2 viral yield assay in Vero cells). Conditions: Dengue virus, Vero, 48 h, read-out: Activity (anti-dengue 2 viral activity, EC50).
Assay type: cell-based
Procedure: Compounds that were active in the primary screen were tested for activity in viral yield assays. […] Vero cells in 12-well plates were infected with dengue-2 virus at a multiplicity of infection (MOI) of 0.1, treated with compound (or DMSO as a control), incubated at 37° C., harvested 48 hours post infection and titered on Vero cells as described above. The EC50 was calculated through ExcelFit. Those compounds with activity below 1 μM are indicated with “A”, those with activity between 1 and 10 μM are indicated with “B”, and those with activity between 10 and 25 μM with “C”.
`O=C(Nc1ccc2nc(SCC(=O)N3CCOCC3)sc2c1)c1ccc(Cl)cc1Cl` [Compound 6, 2,4-Dichloro-N-[2-(2-morpholin-4-yl-2-oxo-ethylsulfanyl)-benzothiazol-6-yl]-benzamide] showed a pEC50 of 5.00 to 6.00.
Work on `CCOc1ccc2nc(SCC(=O)N3CCc4ccccc4C3)sc2c1` [Compound 7, 1-(3,4-Dihydro-1H-isoquinolin-2-yl)-2-(6-ethoxy-benzothiazol-2-ylsulfanyl)-ethanone] yielded a pEC50 of 5.00 to 6.00.
`O=C(CSc1nc2ccccc2[nH]1)N1CCN(c2ccc(F)cc2)CC1` [Compound 8, 2-(1H-Benzoimidazol-2-ylsulfanyl)-1-[4-(4-fluoro-phenyl)-piperazin-1-yl]-ethanone] gave a pEC50 of 5.00 to 6.00.
For `NC(=O)C1(N2CCCCC2)CCN(C(=O)CSc2nc3ccccc3s2)CC1` [Compound 9, 1′-[2-(Benzothiazol-2-ylsulfanyl)-acetyl]-[1,4′]bipiperidinyl-4′-carboxylic acid amide], the pEC50 was 5.00 to 6.00.
In the case of `Cc1cccc(C(=O)Nc2ccc3nc(SCC(=O)N4CCOCC4)sc3c2)c1` [Compound 13, 3-Methyl-N-[2-(2-morpholin-4-yl-2-oxo-ethylsulfanyl)-benzothiazol-6-yl]-benzamide], the pEC50 was 4.60 to 5.00.
`Nc1ccc2nc(SCC(=O)N3CCOCC3)sc2c1` [Compound 16, 2-(6-Amino-benzothiazol-2-ylsulfanyl)-1-morpholin-4-yl-ethanone] was tested, and the pEC50 was less than 4.60.
`O=C(Nc1ccc2nc(SCC(=O)N3CCOCC3)sc2c1)c1ccccc1Br` [Compound 20, 2-Bromo-N-[2-(2-morpholin-4-yl-2-oxo-ethylsulfanyl)-benzothiazol-6-yl]-benzamide] showed a pEC50 of less than 4.60.
Work on `O=C(Nc1ccc2nc(SCC(=O)N3CCOCC3)sc2c1)c1ccccc1` [Compound 21, N-[2-(2-Morpholin-4-yl-2-oxo-ethylsulfanyl)-benzothiazol-6-yl]-benzamide] yielded a pEC50 of less than 4.60.
Work on `COc1ccccc1C(=O)Nc1ccc2nc(SCC(=O)N3CCOCC3)sc2c1` [Compound 28, 2-Methoxy-N-[2-(2-morpholin-4-yl-2-oxo-ethylsulfanyl)-benzothiazol-6-yl]-benzamide] yielded a pEC50 of less than 4.60.
In the case of `O=C(CSc1nc2ccccc2s1)N1CCCCC1` [Compound 41, 2-(Benzothiazol-2-ylsulfanyl)-1-piperidin-1-yl-ethanone], the pEC50 was less than 4.60.

Same assay, conditions: Dengue virus; Dengue-2 strain New Guinea C, Vero cells, MOI 0.1, harvested 48 hours post infection, viral yield; read-out: Activity (anti-dengue 2 viral activity, EC50)
Work on `O=C(CCc1ccccc1)Nc1ccc2nc(SCC(=O)N3CCOCC3)sc2c1` [Compound 1, N-[2-(2-Morpholin-4-yl-2-oxo-ethylsulfanyl)-benzothiazol-6-yl]-3-phenyl-propionamide] yielded a pEC50 greater than 6.00.
Work on `CCC(=O)Nc1ccc2nc(SCC(=O)N3CCCCC3)sc2c1` [Compound 2, N-[2-(2-oxo-2-piperidin-1-yl-ethylsulfanyl)-benzothiazol-6-yl]-propionamide] yielded a pEC50 greater than 6.00.
Compound `Cc1ccccc1C(=O)Nc1ccc2nc(SCC(=O)N3CCOCC3)sc2c1` [Compound 5, 2-Methyl-N-[2-(2-morpholin-4-yl-2-oxo-ethylsulfanyl)-benzothiazol-6-yl]-benzamide] has a pEC50 of 5.00 to 6.00.
`Nc1ccc2nc(SCC(=O)N3CCN(Cc4ccccc4)CC3)sc2c1` [Compound 10, 2-(6-Amino-benzothiazol-2-ylsulfanyl)-1-(4-benzyl-piperazin-1-yl)-ethanone] gave a pEC50 of 5.00 to 6.00.
`O=C(CSc1nc2ccccc2o1)N1CCN(Cc2ccccc2)CC1` [Compound 11, 2-(Benzooxazol-2-ylsulfanyl)-1-(4-benzyl-piperazin-1-yl)-ethanone] gave a pEC50 of 5.00 to 6.00.
With `CCOc1ccc2nc(SCC(=O)N3CCN(c4ccccc4)CC3)sc2c1` [Compound 14, 2-(6-Ethoxy-benzothiazol-2-ylsulfanyl)-1-(4-phenyl-piperazin-1-yl)-ethanone] the pEC50 was 4.60 to 5.00.
In the case of `CCN(CC)C(=O)CSc1nc2ccccc2n1C(=O)NC1CCCCC1` [Compound 15, 2-Diethylcarbamoylmethylsulfanyl-benzoimidazole-1-carboxylic acid cyclohexylamide], the pEC50 was less than 4.60.
`O=C(CSc1nc2ccc(/N=C/c3ccc(Br)cc3)cc2s1)N1CCOCC1` [Compound 17, 2-(6-{[1-(4-Bromo-phenyl)-meth-(E)-ylidene]-amino}-benzothiazol-2-ylsulfanyl)-1-morpholin-4-yl-ethanone] gave a pEC50 of less than 4.60.
`O=C(CSc1nc2ccc(/N=C/c3ccc(Cl)cc3)cc2s1)N1CCOCC1` [Compound 18, 2-(6-{[1-(4-Chloro-phenyl)-meth-(E)-ylidene]-amino}-benzothiazol-2-ylsulfanyl)-1-morpholin-4-yl-ethanone] gave a pEC50 of less than 4.60.
`O=C(CSc1nc2ccc(/N=C/c3c4ccccc4cc4ccccc34)cc2s1)N1CCOCC1` [Compound 19, 2-(6-{[1-Anthracen-9-yl-meth-(E)-ylidene]-amino}-benzothiazol-2-ylsulfanyl)-1-morpholin-4-yl-ethanone] was tested, and the pEC50 was less than 4.60.
`CCCCOc1ccc(C(=O)Nc2ccc3nc(SCC(=O)N4CCOCC4)sc3c2)cc1` [Compound 22, 4-Butoxy-N-[2-(2-morpholin-4-yl-2-oxo-ethylsulfanyl)-benzothiazol-6-yl]-benzamide] showed a pEC50 of less than 4.60.
In the case of `O=C(CSc1nc2ccc(/N=C/c3ccc(Sc4nnnn4-c4ccccc4)o3)cc2s1)N1CCOCC1` [Compound 23, 1-Morpholin-4-yl-2-(6-{[1-[5-(1-phenyl-1H-tetrazol-5-ylsulfanyl)-furan-2-yl]-meth-(E)-ylidene]-amino}-benzothiazol-2-ylsulfanyl)-ethanone], the pEC50 was less than 4.60.
In the case of `O=C(CSc1nc2ccc(/N=C/c3c(Cl)cccc3Cl)cc2s1)N1CCOCC1` [Compound 24, 2-(6-{[1-(2,6-Dichloro-phenyl)-meth-(E)-ylidene]-amino}-benzothiazol-2-ylsulfanyl)-1-morpholin-4-yl-ethanone], the pEC50 was less than 4.60.
`O=C(CSc1nc2ccc(/N=C/c3ccc(I)cc3)cc2s1)N1CCOCC1` [Compound 25, 2-(6-{[1-(4-Iodo-phenyl)-meth-(E)-ylidene]-amino}-benzothiazol-2-ylsulfanyl)-1-morpholin-4-yl-ethanone] was tested, and the pEC50 was less than 4.60.
Work on `O=C(CSc1nc2ccc(/N=C/c3ccc(F)cc3)cc2s1)N1CCOCC1` [Compound 26, 2-(6-{[1-(4-Fluoro-phenyl)-meth-(E)-ylidene]-amino}-benzothiazol-2-ylsulfanyl)-1-morpholin-4-yl-ethanone] yielded a pEC50 of less than 4.60.
For `O=C(Nc1ccc2nc(SCC(=O)N3CCOCC3)sc2c1)c1ccccc1F` [Compound 27, 2-Fluoro-N-[2-(2-morpholin-4-yl-2-oxo-ethylsulfanyl)-benzothiazol-6-yl]-benzamide], the pEC50 was less than 4.60.
With `O=C(Nc1ccc2nc(SCC(=O)N3CCOCC3)sc2c1)c1ccc(Cl)c(Cl)c1` [Compound 29, 3,4-Dichloro-N-[2-(2-morpholin-4-yl-2-oxo-ethylsulfanyl)-benzothiazol-6-yl]-benzamide] the pEC50 was less than 4.60.
`CCN(CC)C(=O)CSc1nc2ccc(N3C(=O)c4ccccc4C3=O)cc2s1` [Compound 30, 2-[6-(1,3-Dioxo-1,3-dihydro-isoindol-2-yl)-benzothiazol-2-ylsulfanyl]-N,N-diethyl-acetamide] showed a pEC50 of less than 4.60.
With `Nc1ccc2nc(SCC(=O)Nc3ccc4nc(SCC(=O)N5CCOCC5)sc4c3)sc2c1` [Compound 31, 2-(6-Amino-benzothiazol-2-ylsulfanyl)-N-[2-(2-morpholin-4-yl-2-oxo-ethylsulfanyl)-benzothiazol-6-yl]-acetamide] the pEC50 was less than 4.60.
For `O=C(Nc1ccc2nc(SCC(=O)N3CCOCC3)sc2c1)C1CCCCC1` [Compound 32, Cyclohexanecarboxylic acid [2-(2-morpholin-4-yl-2-oxo-ethylsulfanyl)-benzothiazol-6-yl]-amide], the pEC50 was less than 4.60.
`Cn1ccnc1SCC(=O)Nc1ccc2nc(SCC(=O)N3CCOCC3)sc2c1` [Compound 33, 2-(1-Methyl-1H-imidazol-2-ylsulfanyl)-N-[2-(2-morpholin-4-yl-2-oxo-ethylsulfanyl)-benzothiazol-6-yl]-acetamide] showed a pEC50 of less than 4.60.
For `O=C(CSc1nc2ccccc2s1)Nc1ccc2nc(SCC(=O)N3CCOCC3)sc2c1` [Compound 34, 2-(Benzothiazol-2-ylsulfanyl)-N-[2-(2-morpholin-4-yl-2-oxo-ethylsulfanyl)-benzothiazol-6-yl]-acetamide], the pEC50 was less than 4.60.
For `O=C(CSc1nnc(-c2ccccc2)n1-c1ccccc1)Nc1ccc2nc(SCC(=O)N3CCOCC3)sc2c1` [Compound 35, 2-(4,5-Diphenyl-4H-[1,2,4]triazol-3-ylsulfanyl)-N-[2-(2-morpholin-4-yl-2-oxo-ethylsulfanyl)-benzothiazol-6-yl]-acetamide], the pEC50 was less than 4.60.
`Cn1c(Cc2cccc3ccccc23)nnc1SCC(=O)Nc1ccc2nc(SCC(=O)N3CCOCC3)sc2c1` [Compound 36, 2-(4-Methyl-5-naphthalen-1-ylmethyl-4H-[1,2,4]triazol-3-ylsulfanyl)-N-[2-(2-morpholin-4-yl-2-oxo-ethylsulfanyl)-benzothiazol-6-yl]-acetamide] showed a pEC50 of less than 4.60.
For `Cn1c(SCC(=O)Nc2ccc3nc(SCC(=O)N4CCOCC4)sc3c2)nnc1-c1ccccc1` [Compound 37, 2-(4-Methyl-5-phenyl-4H-[1,2,4]triazol-3-ylsulfanyl)-N-[2-(2-morpholin-4-yl-2-oxo-ethylsulfanyl)-benzothiazol-6-yl]-acetamide], the pEC50 was less than 4.60.
`O=C(Cc1cccc2ccccc12)Nc1ccc2nc(SCC(=O)N3CCOCC3)sc2c1` [Compound 38, N-[2-(2-Morpholin-4-yl-2-oxo-ethylsulfanyl)-benzothiazol-6-yl]-2-naphthalen-1-yl-acetamide] gave a pEC50 of less than 4.60.
`CCOc1ccc2nc(SCC(=O)N3CCN(c4nc5ccccc5s4)CC3)sc2c1` [Compound 39, 1-(4-Benzothiazol-2-yl-piperazin-1-yl)-2-(6-ethoxy-benzothiazol-2-ylsulfanyl)-ethanone] showed a pEC50 of less than 4.60.
In the case of `Nc1ccc2nc(SCC(=O)N3CCN(c4nc5ccccc5s4)CC3)sc2c1` [Compound 40, 2-(6-Amino-benzothiazol-2-ylsulfanyl)-1-(4-benzothiazol-2-yl-piperazin-1-yl)-ethanone], the pEC50 was less than 4.60.
